According to PMC10820264, “Combining Experimental and Computational Methods to Produce Conjugates of Anticholinesterase and Antioxidant Pharmacophores with Linker Chemistries Affecting Biological Activities Related to Treatment of Alzheimer’s Disease” (Molecules, 2024):
Where two headings read alike, the source gives them in different places. Marks after values point to notes of the source that are not given here.

Tests used:
[1] = Ferric-reducing antioxidant power (FRAP) assay; conditions: Trolox equivalents
[2] = target: T1, peripheral anionic site of Electrophorus electricus AChE (EeAChE) (Electrophorus electricus, UniProt O42275); parameters: method as in PMID 33322783; conditions: compound 20 μM; cited from earlier work
Porcine liver CES [3] = test system: Porcine liver CES; parameters: method as in PMID 33322783; conditions: cited from earlier work
[4] = parameters: method as in PMID 33322783; conditions: Trolox equivalents; cited from earlier work
[5] = ABTS radical cation scavenging assay; conditions: for ABTS•+-Scavenging Activity TEAC: Trolox equivalents; for time to reach the activity level of Trolox in ABTS radical scavenging: compound at 20 μM (IC50 of Trolox)
[6] = test system: spontaneous lipid peroxidation in mouse brain homogenate; type: biochemical
eqBChE = eqBChE (Equus caballus, UniProt P81908); assay: biochemical; type: biochemical; conditions: for Ki: read-out: eqBChE Ki (competitive inhibition constant)
Method: (§1) A mechanism of AChE and BChE inhibition was assessed by a detailed analysis of enzyme kinetics with three increasing concentrations of inhibitor and six substrate concentrations, as described in detail in [72].

AChE = AChE (Homo sapiens, UniProt P22303); assay: biochemical; type: biochemical; conditions: for Ki: read-out: AChE Ki (competitive inhibition constant)
Method: as §1

[7] = test system: free radicals in mouse brain homogenate (TBHP-initiated); type: biochemical; conditions: read-out: Radical Scavenging Capacity, Luminol Chemiluminescence Assay IC50
[8] = target: T1, peripheral anionic site of Electrophorus electricus AChE (EeAChE); type: binding
Aβ42 = Aβ42 (Homo sapiens, UniProt P05067); assay: Inhibition of Aβ42 self-aggregation, thioflavin T fluorescence; type: biochemical; conditions: Aβ42 50 µM, compound 100 µM; for inhibition at 100 µM: read-out: Inhibition of Aβ42 Self-Aggregation
equine serum BChE [9] = target: T2, equine serum BChE (Equus caballus, UniProt P81908); assay: biochemical; type: biochemical; conditions: for BChE activity relative to tacrine (times more active): vs tacrine
Method: (§2) Human erythrocyte AChE and equine serum BChE were purchased from Milamed (Perm, Russia). Porcine liver CES, substrates, and reference compounds were from Sigma-Aldrich (St. Louis, MO, USA). The activity of enzymes was measured spectrophotometrically, as described in detail in [72] using ATCh iodide, BTCh iodide, and 4-NPA as substrates for AChE, BChE, and CES, respectively. Experimental conditions: K,Na—phosphate buffer (100 mM), 25 °C, pH 7.5 for AChE and BChE and pH 8.0 for CES assay. Measurements were carried out on a FLUOStar Optima microplate reader (BMG Labtech, Ortenberg, Germany).
(§3) Test compounds were dissolved in DMSO; the final concentration of solvent in the incubation mixture was 2% (v/v).

Human erythrocyte AChE [10] = target: T3, Human erythrocyte AChE (Homo sapiens, UniProt P22303); assay: biochemical; type: biochemical; conditions: for AChE activity relative to tacrine (times more active): vs tacrine
Method: as §2, §3

Porcine liver CES [11] = assay: CES inhibition, spectrophotometric, 4-NPA substrate; type: biochemical
Method: as §2
Test compounds were dissolved in DMSO; the final concentration of solvent in the incubation mixture was 2% (v/v). […]

[12] = parameters: method as in PMID 33322783; conditions: Trolox equivalents; cited from earlier work; remark: listed apart in the source
Human erythrocyte AChE [13] = target: T3, Human erythrocyte AChE; parameters: method as in PMID 33322783; conditions: cited from earlier work
equine serum BChE [14] = target: T2, equine serum BChE; parameters: method as in PMID 33322783; conditions: cited from earlier work
[15] = read-out: Inhibition of Spontaneous Lipid Peroxidation in Mouse Brain Homogenate, TBARS Assay IC50

Aβ42, sequence (P05067 672-713): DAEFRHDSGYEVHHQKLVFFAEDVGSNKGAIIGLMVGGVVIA
T1 sequence (O42275 24-633): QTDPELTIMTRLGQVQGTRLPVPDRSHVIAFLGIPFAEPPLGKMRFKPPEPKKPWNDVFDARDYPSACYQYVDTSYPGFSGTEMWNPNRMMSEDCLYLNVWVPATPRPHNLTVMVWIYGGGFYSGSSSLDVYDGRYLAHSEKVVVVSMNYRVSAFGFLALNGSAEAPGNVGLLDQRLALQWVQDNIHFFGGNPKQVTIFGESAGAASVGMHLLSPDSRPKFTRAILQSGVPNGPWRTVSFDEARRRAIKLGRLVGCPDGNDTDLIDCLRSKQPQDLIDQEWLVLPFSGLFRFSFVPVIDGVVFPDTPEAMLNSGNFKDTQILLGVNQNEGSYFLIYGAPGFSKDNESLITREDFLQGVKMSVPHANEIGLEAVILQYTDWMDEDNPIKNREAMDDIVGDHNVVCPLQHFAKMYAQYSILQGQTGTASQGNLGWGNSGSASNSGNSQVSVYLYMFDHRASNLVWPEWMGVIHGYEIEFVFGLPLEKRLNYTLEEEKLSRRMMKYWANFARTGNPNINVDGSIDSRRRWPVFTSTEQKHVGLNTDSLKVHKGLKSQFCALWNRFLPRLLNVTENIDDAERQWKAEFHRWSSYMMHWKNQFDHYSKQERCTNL
T2 sequence (P81908 whole entry): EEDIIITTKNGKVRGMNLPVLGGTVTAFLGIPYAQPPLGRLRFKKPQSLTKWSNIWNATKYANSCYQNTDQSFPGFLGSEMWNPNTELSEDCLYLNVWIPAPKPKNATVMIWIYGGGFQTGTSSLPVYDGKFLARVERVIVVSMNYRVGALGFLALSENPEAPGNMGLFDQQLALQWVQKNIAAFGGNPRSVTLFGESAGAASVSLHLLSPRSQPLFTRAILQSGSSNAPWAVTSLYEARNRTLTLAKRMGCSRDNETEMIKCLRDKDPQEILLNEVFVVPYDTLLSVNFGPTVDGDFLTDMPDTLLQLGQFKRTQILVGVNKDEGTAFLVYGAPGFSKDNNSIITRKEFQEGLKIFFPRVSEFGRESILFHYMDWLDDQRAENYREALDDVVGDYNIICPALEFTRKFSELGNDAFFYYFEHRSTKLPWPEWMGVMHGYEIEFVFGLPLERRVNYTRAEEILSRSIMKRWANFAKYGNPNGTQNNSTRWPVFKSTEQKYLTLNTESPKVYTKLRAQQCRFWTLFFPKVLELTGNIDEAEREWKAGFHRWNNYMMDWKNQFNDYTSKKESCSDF
eqBChE, sequence (P81908 whole entry): as above
AChE, sequence (P22303 other isoform, or with tags, fused parts or gaps): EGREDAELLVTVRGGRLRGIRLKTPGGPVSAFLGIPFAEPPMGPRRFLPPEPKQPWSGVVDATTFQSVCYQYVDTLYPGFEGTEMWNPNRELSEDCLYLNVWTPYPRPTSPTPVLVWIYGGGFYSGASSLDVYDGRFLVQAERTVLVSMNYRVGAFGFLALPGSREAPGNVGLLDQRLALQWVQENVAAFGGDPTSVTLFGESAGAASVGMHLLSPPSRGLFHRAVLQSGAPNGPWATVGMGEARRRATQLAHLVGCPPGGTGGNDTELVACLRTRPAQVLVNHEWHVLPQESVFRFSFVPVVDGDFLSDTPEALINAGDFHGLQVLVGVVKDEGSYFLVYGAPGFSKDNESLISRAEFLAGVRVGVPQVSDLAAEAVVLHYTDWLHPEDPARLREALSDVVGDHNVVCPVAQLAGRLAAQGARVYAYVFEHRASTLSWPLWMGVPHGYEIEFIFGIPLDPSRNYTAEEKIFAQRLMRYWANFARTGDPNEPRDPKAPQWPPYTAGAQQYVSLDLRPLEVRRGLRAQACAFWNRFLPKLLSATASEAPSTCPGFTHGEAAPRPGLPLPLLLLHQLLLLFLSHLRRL
T3 sequence (P22303 other isoform, or with tags, fused parts or gaps): as above

| SMILES | Ferric-Reducing Antioxidant Power TE [1] | Propidium Displacement [2] | CES % inhibition at 20 μM (Porcine liver CES [3]) | ABTS•+-Scavenging Activity TEAC [4] | IC50 [5] [nM] | IC50 [6, 15] [nM] | eqBChE αKi (non-competitive inhibition constant) (eqBChE) [nM] | Ki (eqBChE) [nM] | AChE αKi (non-competitive inhibition constant) (AChE) [nM] | Ki (AChE) [nM] | IC50 [7] [nM] | Propidium Displacement [8] [%] | ABTS•+-Scavenging Activity TEAC [5] | inhibition at 100 µM (Aβ42) [%] | IC50 (equine serum BChE [9]) [nM] | IC50 (Human erythrocyte AChE [10]) [nM] | CES % inhibition at 20 μM (Porcine liver CES [11]) [%] | other results |
| --- | --- | --- | --- | --- | --- | --- | --- | --- | --- | --- | --- | --- | --- | --- | --- | --- | --- | --- |
| CC(C)(C)c1cc(CNCCNc2c3c(nc4ccccc24)CCCCC3)cc(C(C)(C)C)c1O [18a] | 0.44 ± 0.06 | 13.6 ± 1.2 ^a % | 26.0 ± 3.9% ^a,* | 1.35 ± 0.06 ^a,*** | 15300 ± 600 | – | – | – | – | – | – | – | – | – | – | – | – | – |
| CC(C)(C)c1cc(C=NCCCCCCCCNc2c3c(nc4ccccc24)CCCCC3)cc(C(C)(C)C)c1O [15d, 2,6-Di-tert-butyl-4-{[8-(7,8,9,10-tetrahydro-6H-cyclohepta[b]quinolin-11-ylamino)-octylimino]-methyl}-phenol] | 0.73 ± 0.02 | – | – | – | 19600 ± 800 | 29100 ± 2400 | 5.68 ± 0.06 | 4.91 ± 0.42 | 31.4 ± 2.4 | 19.9 ± 0.8 | 3000 ± 100 | 14.9 ± 1.2 | 1.00 ± 0.03 | 63.5 ± 5 | 6.24 ± 0.54 | 26 ± 2.4 | 25.5 ± 1.1 | type of BChE inhibition (eqBChE): mixed type; type of AChE inhibition (AChE): mixed type; BChE activity relative to tacrine (times more active) (equine serum BChE [9]): 5 times |
| CC(C)(C)c1cc(CNCCNc2c3c(nc4ccccc24)CCC3)cc(C(C)(C)C)c1O [16a] | 0.57 ± 0.02 | 16.4 ± 1.4 ^a % | 19.6 ± 1.3% ^a,*** | 1.39 ± 0.05 ^a,*** | 14600 ± 800 | – | – | – | – | – | – | – | – | – | – | – | – | – |
| CC(C)(C)c1cc(CNCCCCCCCCNc2c3c(nc4ccccc24)CCCC3)cc(C(C)(C)C)c1O [17d, 2,6-Di-tert-butyl-4-{[8-(1,2,3,4-tetrahydro-acridin-9-ylamino)-octylamino]-methyl}-phenol] | 0.57 ± 0.01 | – | – | – | 15200 ± 700 | – | – | – | – | – | 11300 ± 1500 | 13.4 ± 1.2 | – | 71.4 ± 4.9 | 7.56 ± 0.42 | 15.1 ± 2 | 23.6 ± 2.1 | time to reach the activity level of Trolox in ABTS radical scavenging [5]: less than 1 min; AChE activity relative to tacrine (times more active) (Human erythrocyte AChE [10]): ~ 40 times |
| Cc1cc(C(C)(C)C)c(O)c(C(C)(C)C)c1 [BHT, butylated hydroxytoluene, reference compound] | 0.96 ± 0.02 | – | – | – | 22400 ± 1400 | 6900 ± 300 | – | – | – | – | 70400 ± 4100 | – | 0.98 ± 0.03 | – | – | – | 5.6 ± 0.2 | IC50 ([6]; read-out: Inhibition of spontaneous lipid peroxidation in mice brain homogenate (TBARS Assay) IC50): 7000 nM; Inhibition of Aβ42 Self-Aggregation (Aβ42): not detectable; inhibition at 20 µM (equine serum BChE [9]; read-out: BChE % inhibition at 20 μM): 18.9 ± 1.7%; inhibition at 20 µM (Human erythrocyte AChE [10]; read-out: AChE % inhibition at 20 μM): 6 ± 1.5% |
| CC(C)(C)c1cc(C=NCCCCCCNc2c3c(nc4ccccc24)CCCCC3)cc(C(C)(C)C)c1O [15c, 2,6-Di-tert-butyl-4-{[6-(7,8,9,10-tetrahydro-6H-cyclohepta[b]quinolin-11-ylamino)-hexylimino]-methyl}-phenol] | 0.52 ± 0.02 | – | – | – | 22300 ± 1100 | 27600 ± 1700 | 9.34 ± 0.62 | 5.13 ± 0.1 | 108 ± 3 | 69.8 ± 5 | 2300 ± 300 | 16.8 ± 1.2 | 0.90 ± 0.03 | 43.4 ± 3.9 | 10.6 ± 0.2 | 151 ± 13 | 25.4 ± 0.9 | – |
| CC(C)(C)c1cc(C=NCCCCCCCCNc2c3c(nc4ccccc24)CCCC3)cc(C(C)(C)C)c1O [14d, 2,6-Di-tert-butyl-4-{[8-(1,2,3,4-tetrahydro-acridin-9-ylamino)-octylimino]-methyl}-phenol] | 0.70 ± 0.03 | – | – | – | 18200 ± 700 | 20400 ± 2300 | – | – | – | – | 1900 ± 100 | 14.8 ± 1.0 | 1.06 ± 0.03 | 70.4 ± 5.6 | 9.39 ± 0.42 | 17.1 ± 1.6 | 28.8 ± 2.0 | AChE potency relative to compound 14a (times more potent) (Human erythrocyte AChE [10]; vs 14a): 350 times; AChE activity relative to tacrine (times more active) (Human erythrocyte AChE [10]): ~ 40 times |
| CC(C)(C)c1cc(/C=N/CCNc2c3c(nc4ccccc24)CCCC3)cc(C(C)(C)C)c1O [14a] | – | 18.2 ± 1.6 ^a,*^,§ % | 28.6 ± 1.6% ^a,*** | 1.13 ± 0.05 ^a | 17800 ± 1500 | – | – | – | – | – | – | – | – | – | – | – | – | Ferric-Reducing Antioxidant Power TE [12]: 0.58 ± 0.03 ^a,***; IC50 (Human erythrocyte AChE [13]): 5980 ± 131 nM; IC50 (equine serum BChE [14]): 1610 ± 40 nM |
| CC(C)(C)c1cc(CNCCCCCCCCNc2c3c(nc4ccccc24)CCCCC3)cc(C(C)(C)C)c1O [18d, 2,6-Di-tert-butyl-4-{[8-(7,8,9,10-tetrahydro-6H-cyclohepta[b]quinolin-11-ylamino)-octylamino]-methyl}-phenol] | 0.45 ± 0.01 | – | – | – | 15800 ± 600 | 20200 ± 3300 | 6.06 ± 0.41 | 4.25 ± 0.33 | 25.1 ± 0.2 | 13 ± 1 | 9200 ± 600 | 12.3 ± 0.8 | – | 59.6 ± 4.7 | 5.96 ± 0.58 | 30.8 ± 0.2 | 13.9 ± 1.2 | time to reach the activity level of Trolox in ABTS radical scavenging [5]: less than 1 min; BChE activity relative to tacrine (times more active) (equine serum BChE [9]): 5 times |
| CC(C)(C)c1cc(CNCCCCCCNc2c3c(nc4ccccc24)CCCCC3)cc(C(C)(C)C)c1O [18c, 2,6-Di-tert-butyl-4-{[6-(7,8,9,10-tetrahydro-6H-cyclohepta[b]quinolin-11-ylamino)-hexylamino]-methyl}-phenol] | 0.43 ± 0.02 | – | – | – | 21600 ± 1100 | 24600 ± 2800 | 17.3 ± 0.2 | 7.83 ± 0.76 | 101 ± 5 | 83.1 ± 1.4 | 14600 ± 800 | 12.5 ± 0.9 | 1.00 ± 0.03 | 47.8 ± 3.8 | 14.9 ± 0.3 | 103 ± 4 | 16.8 ± 0.5 | – |
